The assay deals with Human Umbilical Vein Endothelial cells (VEGF-stimulated). Kind of assay: HUVEC proliferation assay, VEGF-stimulated. It counts as cell-based. To be noted: VEGF 50 ng/mL, 72 h, CyQuant, read-out: inhibited VEGF-stimulated HUVEC proliferation at a level. As to the method: Human Umbilical Vein Endothelial cells are purchased from Clonetics, Inc., as cryopreserved cells harvested from a pool of donors. These cells, at passage 1, are thawed and expanded in EBM-2 complete medium, until passage 2 or 3. The cells are trypsinized, washed in DMEM+10% FBS+antibiotics, and spun at 1000 rpm for 10 min. Prior to centrifugation of the cells, a small amount is collected for a cell count. After centrifugation, the medium is discarded, and the cells are resuspended in the appropriate volume of DMEM+10% FBS+antibiotics to achieve a concentration of 3×10^5 cells/mL. Another cell count is performed to confirm the cell concentration. The cells are diluted to 3×10^4 cells/mL in DMEM+10% FBS+antibiotics, and 100 μL of cells are added to a 96-well plate. The cells are incubated at 37° C. for 22 h.
Prior to the completion of the incubation period, compound dilutions are prepared. Five-point, five-fold serial dilutions are prepared in DMSO, at concentrations 400-fold greater than the final concentrations desired. 2.5 μL of each compound dilution are diluted further in a total of 1 mL DMEM+10% FBS+antibiotics (400× dilution). Medium containing 0.25% DMSO is also prepared for the 0 μM compound sample. At the 22-hour timepoint, the medium is removed from the cells, and 100 μL of each compound dilution is added. The cells are incubated at 37° C. for 2-3 h.
During the compound pre-incubation period, the growth factors are diluted to the appropriate concentrations. Solutions of DMEM+10% FBS+antibiotics, containing either VEGF or bFGF at the following concentrations: 50, 10, 2, 0.4, 0.08, and 0 ng/mL are prepared. For the compound-treated cells, solutions of VEGF at 550 ng/mL or bFGF at 220 ng/mL for 50 ng/mL or 20 ng/mL final concentrations, respectively, are prepared since 10 μL of each will be added to the cells (110 μL final volume). At the appropriate time after adding the compounds, the growth factors are added. VEGF is added to one set of plates, while bFGF is added to another set of plates. For the growth factor control curves, the media on wells B4-G6 of plates 1 and 2 are replaced with media containing VEGF or bFGF at the varying concentrations (50-0 ng/mL). The cells are incubated at 37° C. for an additional 72 h.
At the completion of the 72 h incubation period, the medium is removed, and the cells are washed twice with PBS. After the second wash with PBS, the plates are tapped gently to remove excess PBS, and the cells are placed at −70° C. for at least 30 min. The cells are thawed and analyzed using the CyQuant fluorescent dye (Molecular Probes C-7026), following the manufacturer's recommendations. The plates are read on a Victor/Wallac 1420 workstation at 485 nm/530 nm (excitation/emission). Raw data are collected and analyzed using a 4-parameter fit equation in XLFit. IC50 values are then determined.
For `O=C(Nc1cc(CCCN2CCOCC2)cc(C(F)(F)F)c1)c1cccnc1NCc1ccncc1` [Example 964, N-[3-(3-Morpholin-4-yl-propyl)-5-trifluoromethyl-phenyl]-2-[(pyridin-4-ylmethyl)-amino]-nicotinamide], the IC50 is less than 50 nM.

Consider `CN1CCC(CCCOc2cc(CNc3ncccc3C(=O)Nc3ccc(C(F)(F)F)cc3)ccn2)CC1` [Example 922, 2-({2-[3-(1-Methyl-piperidin-4-yl)-propoxy]-pyridin-4-ylmethyl}-amino)-N-(4-trifluoromethyl-phenyl)-nicotinamide], for which the IC50 is less than 50 nM.

Turning to `COc1nccc(CNc2ncccc2C(=O)Nc2ccc(C(C)(C)C)c(NC(=O)CN(C)C)c2)n1` [Example 1074, N-(4-(1,1-dimethylethyl)-3-((N,N-dimethylglycyl)amino)phenyl)-2-(((2-(methyloxy)-4-pyrimidinyl)methyl)amino)-3-pyridinecarboxamide], the IC50 was less than 50 nM.

Take `CC1(C)CNCc2cc(NC(=O)c3cccnc3NCc3ccnc4ccccc34)ccc21` [Example 1192, N-(4,4-Dimethyl-1,2,3,4-tetrahydro-isoquinolin-7-yl)-2-[(quinolin-4-ylmethyl)-amino]-nicotinamide]: the IC50 was less than 50 nM.

Turning to `CNc1nccc(CNc2ncccc2C(=O)Nc2ccc(C(F)(F)F)c(OCCNS(C)(=O)=O)c2)n1` [Example 1033, 2-(((2-(Methylamino)-4-pyrirnidinyl)methyl)amino)-N-(3-((2-((methylsulfonyl)amino)ethyl)oxy)-4-(trifluoromethyl)phenyl)-3-pyridinecarboxamide], the IC50 was less than 50 nM.

On to `CNc1cc(CNc2ncccc2C(=O)Nc2cc(OC[C@@H]3CCCO3)cc(C(F)(F)F)c2)ccn1` [Example 1080, 2-(((2-(methylamino)-4-pyridinyl)methyl)amino)-N-(3-(((2S)-tetrahydro-2-furanylmethyl)oxy)-5-(trifluoromethyl)phenyl)-3-pyridinecarboxamide], for which the IC50 is less than 50 nM.

`CNc1nccc(CNc2ncccc2C(=O)Nc2ccc3c(c2)CNCC3(C)C)n1` [Example 1038, N-(4,4-Dimethyl-1,2,3,4-tetrahydro-7-isoquinolinyl)-2-(((2-(methylamino)-4-pyrimidinyl)methyl)amino)-3-pyridinecarboxamide]: the IC50 was less than 50 nM.

As to `CC(C)(C)c1ccc(NC(=O)c2cccnc2NCc2ccnc(Cl)c2)cc1` [Example 138, N-[4-(tert-Butyl)phenyl](2-{[(2-chloro(4-pyridyl))methyl]amino}(3-pyridyl))carboxamide], the IC50 is less than 50 nM.

Regarding `CC(C)(C)c1ccc(NC(=O)c2cccnc2NCc2ccc3c(c2)CCO3)cc1` [Example 826, N-[4-(tert-Butyl)phenyl]{2-[(2,3-dihydrobenzo[b]furan-5-ylmethyl)amino](3-pyridyl)}carboxamide], the IC50 is less than 50 nM.

As to `CC1(C)CNCc2cc(NC(=O)c3cccnc3NCc3ccc4ncccc4c3)ccc21` [Example 1061, N-(4,4-dimethyl-1,2,3,4-tetrahydro-7-isoquinolinyl)-2-((6-quinolinylmethyl)amino)-3-pyridinecarboxamide], the IC50 was less than 50 nM.

As for `CC(=O)N1CC(C)(C)c2ccc(NC(=O)c3cccnc3NCc3ccncn3)cc21` [Example 1022, N-(1-Acetyl-3,3-dimethyl-2,3-dihydro-1H-indol-6-yl)-2-((4-pyrimidinylmethyl)amino)-3-pyridinecarboxamide], the IC50 was less than 50 nM.

As to `O=C(Nc1cc(NC(=O)c2cccnc2NCc2ccncn2)cc(C(F)(F)F)c1)O[C@H]1CCOC1` [Example 1086, (3S)-tetrahydro-3-furanyl 3-(((2-((4-pyrimidinylmethyl)amino)-3-pyridinyl)carbonyl)amino)-5-(trifluoromethyl)phenylcarbamate], the IC50 was less than 50 nM.

Turning to `COc1nccc(CNc2ncccc2C(=O)Nc2ccc3c(c2)N(C(C)=O)CC3(C)C)n1` [Example 1046, N-(1-acetyl-3,3-dimethyl-2,3-dihydro-1H-indol-6-yl)-2-(((2-(methyloxy)-4-pyrimidinyl)methyl)amino)-3-pyridinecarboxamide], the IC50 is less than 50 nM.

On to `O=C(Nc1cc(CCCN2CCCCC2)cc(C(F)(F)F)c1)c1cccnc1NCc1ccncc1` [Example 963, N-[3-(3-Piperidin-1-yl-propyl)-5-trifluoromethyl-phenyl]-2-[(pyridin-4-ylmethyl)-amino]-nicotinamide], for which the IC50 is less than 50 nM.

Take `O=C(Nc1ccc(C(F)(F)F)c(OCCN2CCCC2)c1)c1cccnc1NCc1ccncc1` [Example 982, 2-[(Pyridin-4-ylmethyl)-amino]-N-[3-(2-pyrrolidin-1-yl-ethoxy)-4-trifluoromethyl-phenyl]-nicotinamide]: the IC50 is less than 50 nM.

Consider `CC(C)(C)c1ccc(NC(=O)c2cccnc2NCc2ccnc(OCCCN3CCOCC3)c2)cc1` [Example 904, N-(4-tert-Butyl-phenyl)-2-{[2-(3-morpholin-4-yl-propoxy)-pyridin-4-ylmethyl]-amino}-nicotinamide], for which the IC50 is less than 50 nM.

As to `O=C(Nc1ccc(C(OC[C@@H]2CCCN2)(C(F)(F)F)C(F)(F)F)cc1)c1cccnc1NCc1ccncc1` [Example 1141, 2-[(Pyridin-4-ylmethyl)-amino]-N-{4-[2,2,2-trifluoro-1-(pyrrolidin-2-ylmethoxy)-1-trifluoromethyl-ethyl]-phenyl}-nicotinamide], the IC50 was less than 50 nM.

For the molecule `CCc1cc(CNc2ncccc2C(=O)Nc2ccc(C(C)(C)C)cc2)ccn1` [Example 873, N-(4-tert-Butyl-phenyl)-2-{[2-ethylpyridin-4-ylmethyl]-amino}-nicotinamide], the IC50 is less than 50 nM.

`CN(C)CC(=O)N1CC(C)(C)c2ccc(NC(=O)c3cccnc3NCc3ccnc4ccccc34)cc21` [Example 1030, N-(1-(N,N-Dimethylglycyl)-3,3-dimethyl-2,3-dihydro-1H-indol-6-yl)-2-((4-quinolinylmethyl)amino)-3-pyridinecarboxamide]: the IC50 is less than 50 nM.

For `CNc1nccc(CNc2ncccc2C(=O)Nc2ccc3c(c2)N(C(=O)CN(C)C)CC3(C)C)n1` [Example 1039, N-(1-(N,N-Dimethylglycyl)-3,3-dimethyl-2,3-dihydro-1H-indol-6-yl)-2-(((2-(methylamino)-4-pyrimidinyl)methyl)amino)-3-pyridinecarboxamide], the IC50 was less than 50 nM.

Regarding `CN1CCC(CCCOc2cc(CNc3ncccc3C(=O)Nc3cccc(C(F)(F)F)c3)ccn2)CC1` [Example 923, 2-({2-[3-(1-Methyl-piperidin-4-yl)-propoxy]-pyridin-4-ylmethyl}-amino)-N-(3-trifluoromethyl-phenyl)-nicotinamide], the IC50 is less than 50 nM.

Turning to `CNc1nccc(CNc2ncccc2C(=O)Nc2ccc(C(C)(C)C)c(NC(=O)CN(C)C)c2)n1` [Example 1077, N-(4-(1,1-dimethylethyl)-3-((N,N-dimethylglycyl)amino)phenyl)-2-(((2-(methylamino)-4-pyrimidinyl)methyl)amino)-3-pyridinecarboxamide], the IC50 is less than 50 nM.

On to `O=C(Nc1cccc(C(OC[C@@H]2CCCN2)(C(F)(F)F)C(F)(F)F)c1)c1cccnc1NCc1ccncc1` [Example 1138, 2-[(Pyridin-4-ylmethyl)-amino]-N-{3-[2,2,2-trifluoro-1-(pyrrolidin-2-ylmethoxy)-1-trifluoromethyl-ethyl]-phenyl}-nicotinamide], for which the IC50 is less than 50 nM.

Source of the values: patent US7687643B2, “Process for preparing 3,3-dimethylindolines” (Amgen Inc., priority 2001, dated 2010).
